Experimental data from PubChem BioAssay (NCI).
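Tested at 5 concentrations; 48 h exposure; 96-well plates; endpoints linearly interpolated, else capped at highest concentration. TGI marks complete inhibition of growth.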

Columns and labels:
Assay in all cases: inhibition of tumour cell growth, NCI panel, 48 h
[1] = system: MOLT-4 leukemia
[2] = system: NCI/ADR-RES ovarian
[3] = system: 786-0 renal
[4] = system: SF-539 CNS
[5] = system: NCI-H460 lung
[6] = system: MALME-3M melanoma
[7] = system: OVCAR-5 ovarian
[8] = system: IGROV1 ovarian
[9] = system: SNB-19 CNS
[10] = system: UACC-257 melanoma
[11] = system: HCT-15 colon
[12] = system: OVCAR-3 ovarian
[13] = system: SK-MEL-5 melanoma
[14] = system: UO-31 renal
[15] = system: NCI-H23 lung
[16] = system: SW-620 colon
[17] = system: MCF7 breast
[18] = system: U251 CNS
[19] = system: NCI-H226 lung
[20] = system: RPMI-8226 leukemia
[21] = system: SK-MEL-28 melanoma
[22] = system: K-562 leukemia
[23] = system: EKVX NSCLC
[24] = system: OVCAR-8 ovarian
[25] = system: SR leukemia
[26] = system: PC-3 prostate
[27] = system: SN12C renal
[28] = system: HT29 colon
[29] = system: COLO 205 colon
[30] = system: MDA-N
[31] = system: HL-60(TB) leukemia
[32] = system: T-47D breast
[33] = system: UACC-62 melanoma
[34] = system: SF-295 CNS
[35] = system: CCRF-CEM leukemia
[36] = system: HOP-92 NSCLC
[37] = system: KM12 colon
[38] = system: SNB-75 CNS
[39] = system: A498 renal
[40] = system: CAKI-1 renal
[41] = system: HCC-2998 colon
[42] = system: A549 NSCLC
[43] = system: OVCAR-4 ovarian
[44] = system: MDA-MB-435
[45] = system: M14 melanoma
[46] = system: NCI-H522 lung
[47] = system: DU-145 prostate
[48] = system: RXF 393 renal
[49] = system: HS 578T breast
[50] = system: LOX IMVI melanoma
[51] = system: HOP-62 NSCLC
[52] = system: ACHN renal
[53] = system: BT-549 breast
[54] = system: TK-10 renal
[55] = system: MDA-MB-231 breast
[56] = system: SK-MEL-2 melanoma
[57] = system: SF-268 CNS
[58] = system: HCT-116 colon

`Cc1c(-c2ccccc2)cc(O)c2nc3ccccc3n12` gave a TGI [1] of over 100 µM, a TGI [2] of over 100 µM and a TGI [3] of over 100 µM. For the same molecule, the TGI [4] was over 100 µM, the TGI [5] was over 100 µM and the TGI [6] was over 100 µM. For the same molecule, the TGI [7] was over 100 µM, the TGI [8] was over 100 µM and the TGI [9] was over 100 µM. It also gave a TGI [10] of over 100 µM, a TGI [11] of over 100 µM and a TGI [12] of over 100 µM. For the same molecule, the TGI [13] was over 100 µM, the TGI [14] was over 100 µM and the TGI [15] was over 100 µM. It also gave a TGI [16] of over 100 µM, a TGI [17] of over 100 µM and a TGI [18] of over 100 µM. The TGI [19] was over 100 µM, the TGI [20] was over 100 µM and the TGI [21] was over 100 µM. It also gave a TGI [22] of over 100 µM, a TGI [23] of over 100 µM and a TGI [24] of over 100 µM. The TGI [25] was over 100 µM, the TGI [26] was over 100 µM and the TGI [27] was over 100 µM. The TGI [28] was over 100 µM, the TGI [29] was over 100 µM and the TGI [30] was over 100 µM. The TGI [31] was over 100 µM, the TGI [32] was over 100 µM and the TGI [33] was over 100 µM. It also gave a TGI [34] of over 100 µM, a TGI [35] of over 100 µM and a TGI [36] of over 100 µM. The TGI [37] was over 100 µM, the TGI [38] was over 100 µM and the TGI [39] was over 100 µM. For the same molecule, the TGI [40] was over 100 µM, the TGI [41] was over 100 µM and the TGI [42] was over 100 µM. It also gave a TGI [43] of over 100 µM, a TGI [44] of over 100 µM and a TGI [45] of over 100 µM. The TGI [46] was over 100 µM, the TGI [47] was over 100 µM and the TGI [48] was over 100 µM. The TGI [49] was over 100 µM, the TGI [50] was over 100 µM and the TGI [51] was over 100 µM. It also gave a TGI [52] of over 100 µM, a TGI [53] of over 100 µM and a TGI [54] of over 100 µM. The TGI [55] was over 100 µM.

Work on `CC(=O)OCC1OC(N2C(C)=C(C(C)=O)C(c3ccc(Cl)cc3)C(C#N)=C2S)C(OC(C)=O)C(OC(C)=O)C1OC(C)=O` (stereo unspecified) yielded a TGI [1] of 82.2 µM, a TGI [2] of over 100 µM and a TGI [3] of over 100 µM. For the same molecule, the TGI [4] was over 100 µM, the TGI [5] was over 100 µM and the TGI [6] was over 100 µM. It also gave a TGI [7] of over 100 µM, a TGI [8] of over 100 µM and a TGI [9] of over 100 µM. For the same molecule, the TGI [10] was over 100 µM, the TGI [11] was over 100 µM and the TGI [12] was over 100 µM. The TGI [13] was over 100 µM, the TGI [14] was 88.8 µM and the TGI [16] was over 100 µM. For the same molecule, the TGI [17] was over 100 µM, the TGI [18] was over 100 µM and the TGI [19] was over 100 µM. For the same molecule, the TGI [20] was over 100 µM, the TGI [21] was over 100 µM and the TGI [22] was over 100 µM. It also gave a TGI [24] of over 100 µM, a TGI [25] of over 100 µM and a TGI [26] of over 100 µM. For the same molecule, the TGI [27] was over 100 µM, the TGI [28] was over 100 µM and the TGI [29] was 35.6 µM. It also gave a TGI [30] of over 100 µM, a TGI [31] of over 100 µM and a TGI [32] of over 100 µM. The TGI [56] was over 100 µM, the TGI [33] was 60.6 µM and the TGI [34] was over 100 µM. The TGI [57] was over 100 µM, the TGI [35] was over 100 µM and the TGI [36] was over 100 µM. For the same molecule, the TGI [37] was over 100 µM, the TGI [38] was over 100 µM and the TGI [39] was over 100 µM. The TGI [40] was over 100 µM, the TGI [41] was over 100 µM and the TGI [42] was over 100 µM. The TGI [43] was over 100 µM, the TGI [44] was over 100 µM and the TGI [45] was over 100 µM. For the same molecule, the TGI [46] was over 100 µM, the TGI [47] was over 100 µM and the TGI [58] was over 100 µM. The TGI [48] was over 100 µM, the TGI [49] was over 100 µM and the TGI [50] was over 100 µM. It also gave a TGI [51] of over 100 µM, a TGI [52] of over 100 µM and a TGI [53] of over 100 µM. The TGI [54] was over 100 µM and the TGI [55] was over 100 µM.
